Test results: a melting point compilation (Tetko et al.)

SMILES	melting point [°C]
COc1ccc(C(=O)O)cc1OCc1ccccc1	180
Cc1ccc(NC(=O)C=CC(=O)O)cc1	205
O=C(O)CCCCCCCC(O)C(O)CCCCCCO (stereo unspecified)	100
Cc1ccc([C@@H]2CC(=O)[C@@H](c3ccccc3)[C@H](c3ccc(C)cc3)N2)cc1	148
Nn1cnc2c(c(Br)nn2C2CCCCC2)c1=O	253 to 254
NNc1ccc(Br)cc1	108
O=C(O)c1c[nH]c2ccccc12	200 to 203
O=C(O)c1ccc(C(=O)O)c2c(C(=O)O)ccc(C(=O)O)c12	320
CCOc1ccc2[nH]c(=S)sc2c1	199
O=C(O)CN1CCOCCOCCN(CC(=O)O)CCOCCOCC1	173 to 175
COC(=O)C1(C)CCC(C(=O)O)C1(C)C (stereo unspecified)	74 to 78
O=C(Nc1ccccc1)C(c1ccccc1)c1ccccc1	177
FC(F)(F)c1n[nH]c(=S)[nH]1	161 to 164
Nc1ccccc1C(=O)c1ccccc1	107
O=C(Cl)c1cc(-c2ccco2)on1	74 to 76
CN1C(=C(O)Nc2ccccn2)C(=O)c2sccc2S1(=O)=O	211
OCCNCCNCCO	97.5
O=C(CCCCC(=O)NCCCC(=O)ON1C(=O)CCC1=O)NCCCC(=O)ON1C(=O)CCC1=O	145
Cc1cc2ncc(C(=O)O)c(C)n2n1	250 to 251
CC(=O)C=CC(=O)O	124
ON=Cc1cccc2c(Br)cccc12	134
CCc1cccc(Cl)c1	-55
Cc1ccc(C(=O)c2noc(-c3ccc([N+](=O)[O-])cc3)c2S(=O)(=O)c2ccccc2)cc1	170
CC1=NN(CN2CCOCC2)C(=O)/C1=N\Nc1cc(Cl)c(Cl)cc1Cl	175

SMILES	melting point [°C]
O=C(Cl)c1cc(Cl)cc(Cl)c1	40
COC(=O)c1ccc(N2N=N2)cc1	40
Clc1c(Cl)c(Cl)c2nccnc2c1Cl	190
CC(C)(C)C(N)P(=O)(O)O (stereo unspecified)	245 to 252
CC(=O)c1sc(-c2cccs2)nc1C	121 to 122
NC(=O)CCCCC1CCSS1 (stereo unspecified)	128
OCc1ccnc(Cl)c1	65.5 to 67.5
CN(CCOc1ccc(CC2SC(=O)NC2=O)cc1)c1ccccn1 (stereo unspecified)	122
O=c1[nH]c2ccc([N+](=O)[O-])cc2[nH]1	314 to 317
Nc1ccc(NC(=O)C(F)(F)F)cc1	118
Cc1cc(C(=O)O)ccc1Cl	216 to 218
CCSc1ncccc1C(=O)Cl	53 to 55
FC(F)(F)c1cc(-n2cccc2)cc(C(F)(F)F)c1	43 to 45
CCSc1sc(C#N)c2c1C(=O)CC(C)(C)C2	150 to 153
Nc1ccc(C(F)(F)F)cn1	47
Cc1nc([N+](=O)[O-])cn1CCC#N	115
Cc1cc(C)n(CN(CCO)Cn2nc(C)cc2C)n1	82 to 84
O=C(/C(=N/Nc1cccnc1)C(=O)C(F)(F)F)c1cccs1	150
CN(C(=O)Cl)c1ccccc1	88.5
NC(Cc1ccc([N+](=O)[O-])cc1)C(=O)O (racemic)	236 to 237
COC(=O)C1(S(=O)(=O)c2ccccc2)CC1	74.5
Nc1c(O)cccc1C(=O)O	240
O=C(O)CCC(=O)Nc1ccc(S(=O)(=O)Nc2nccs2)cc1	194
O=C(O)C1C2CCC(O2)C1C(=O)O (stereo unspecified)	144

SMILES	melting point [°C]
Ic1nccn1C(c1ccccc1)(c1ccccc1)c1ccccc1	171
O=[N+]([O-])c1c(O)c(Cl)cc(Cl)c1Cl	92.5
Cc1cc(C)c(O)c(C(=O)CC2CC(=O)NC(=O)C2)c1	201
N#C/C(=N\Nc1cccc(F)c1)c1nc2ccccc2s1	196
O=Cc1ccc2cccc(O)c2n1	96 to 100
CC(=O)OCC1=C(C(=O)O)N2C(=O)C(N)C2SC1 (stereo unspecified)	300
ClC[Si]12OCCN(CCO1)CCO2	221
CC(C)(C)c1ccc(-c2nnc(-c3ccc(-c4ccccc4)cc3)o2)cc1	137
O=C(O)C1CC(=O)N(Cc2ccc(F)cc2)C1 (stereo unspecified)	150 to 151
Cn1cnc2c(NCc3ccccc3)nc(NCCO)nc21	120 to 130
O=C1C(=CC2C(=O)N(c3ccccc3)N=C2c2ccc([N+](=O)[O-])cc2)C(c2ccc([N+](=O)[O-])cc2)=NN1c1ccccc1 (stereo unspecified)	283 to 284
Cc1cccc(C)c1N(C(=O)CCl)C1CCOC1=O (stereo unspecified)	146
CCCCCCCCCCCCCCCCCC(=O)OCC(O)CO (stereo unspecified)	74
O=C(C(=O)c1ccc2c3c(cccc13)CC2)c1ccccc1	148
O=C1Cc2cc(O)ccc2O1	190 to 195
CCOC(=O)c1cc2c(=O)oc3ccccc3c2nc1C	167
COC(=O)c1ccccc1-n1c(=S)[nH]c2ccccc2c1=O	255 to 257
Nc1cc(C(F)(F)F)c(Br)cc1F	36
BrCC12CC3CC(CC(C3)C1)C2	30 to 32
Cc1nc(Br)sc1C(=O)O	149 to 150
O=C(O)C(CBr)CBr	100
CCCCCCCCCCF	-35
CCO[Si](Cl)(Cl)Cl	-135
Cc1cc(C)c(C)c(I)c1C	79

SMILES	melting point [°C]
O=Cc1c(F)cccc1Cl	37
CCCCCCCCC(=O)OCC	-36.7
Cc1ccc(S(=O)(=O)OCC2CCC(=O)N2)cc1 (stereo unspecified)	122 to 129
N#CCCc1ccc(O)cc1	56
NNC(=O)C(=O)NC1CCCCC1	238
CC(=O)Nc1c(Cl)cccc1Cl	181
CC(C)(C)OC(=O)NCCC(N)=S	109 to 112
O=C(O)c1cc(I)ccc1F	163
Cc1ccc(Sc2ccc([N+](=O)[O-])cc2C=O)cc1	157 to 158
C=CC1CN2CCC1CC2c1[nH]c2ccccc2c1CCO (stereo unspecified)	186
Cc1cc(N)n(C)n1	75
N#Cc1cc(Br)c(O)c(Br)c1	190
BrCCI	28
CC1(c2ccc(Oc3ccccc3)cc2)OC(=O)N(Nc2ccccc2)C1=O (stereo unspecified)	142
C1CNCCNCCNCCN1	108 to 113
CC(O)(c1ccc(Cl)cc1)c1ccc(Cl)cc1	70
O=CF	-142
N#CCN	101
C#CCCCCCCCCCCCC	0
CC(=O)Oc1ccc(C2(c3ccc(OC(C)=O)cc3)C(=O)Nc3ccccc32)cc1	242
Cc1ccc2c(C)cccc2c1C	33.5
COC(=O)/C=C(/C(=O)OC)N(Nc1ccccc1N=Nc1ccccc1)c1ccccc1	153 to 154
Cc1n[nH]cc1-c1ccccc1	142
Cc1cc(Br)ccc1C(=O)O	183
